Experimental findings from publication PMC9804084, “Multiple drug transporters contribute to the brain transfer of levofloxacin” (CNS Neuroscience & Therapeutics, 2022) are described below.

In this data set the test system is P-glycoprotein (P-gp). In words: In vivo microdialysis pharmacokinetics of LVFX with P-gp inhibitor Tariquidar. Set-up: species or system rat. Particulars: for MRT / Tmax / AUC(0-inf) / Cmax / half-life / AUC(0-t) / Kp: rat, intravenous, with Tariquidar 8 mg/kg i.p., TAR group, Tariquidar 8 mg/kg i.p. + LVFX 50 mg/kg, N=5; for MRT / AUC(0-inf) / Cmax / half-life / AUC(0-t): mean ± SD; for AUC(0-t): read-out: AUC0–180 (converted). How it is done:
On the day of surgery, rats were anesthetized using inhaled isoflurane via a facemask. The rats were placed in a stereotaxic frame (Gene&I), and the body temperature was maintained with a homoeothermic blanket set at 37°C. A midline incision was made to expose the skull. According to the Paxinos and Watson atlas, two microdialysis intracerebral guide cannulae (Eicom Co.) were implanted into the hippocampus CA1 region (Hp‐CA1 coordinates: AP −4.16 mm; ML −2.2 mm; DV −2.9 mm) and lateral ventricle (LV coordinates: AP −1.4 mm; ML +2.2 mm; DV −3.4 mm). Fixed to the skull using a screw and dental cement. After 3 days of recovery, the rats were anesthetized with isoflurane again. An intravascular probe (TP‐100‐20; 20 mm, Eicom Co.) was implanted into the jugular vein toward the right atrium. After the blood microdialysis probe was positioned within the jugular vein, the pipeline was connected to perfuse with ACD solution (citric acid 3.5 mM; sodium citrate 7.5 mM; dextrose 13.6 mM) at a flow rate of […], and the Hamilton microinjection pump was used for continuous perfusion. After stopping isoflurane inhalation, the rats were allowed to wake up naturally on the homoeothermic blanket. The awake rats were placed in a device that allowed them to move freely. Animals were allowed to recover for an additional 24 h.
All microdialysate concentrations (C m) from the hippocampal ECF and lateral ventricle CSF were converted to the unbound drug concentration (C u) at the target site using the following formula: C u = C m/R dial.
A total of 32 rats were randomly divided into the following groups: • Control group, N = 12: vehicle solution + LVFX (50 mg/kg). • TAR group, N = 5: Tariquidar (8 mg/kg) + LVFX (50 mg/kg). • Ko143 group, N = 5: Ko143 (15 mg/kg) + LVFX (50 mg/kg). • MK571 group, N = 5: MK571 (20 mg/kg) + LVFX (50 mg/kg). • PRO group, N = 5: Probenecid (50 mg/kg) + LVFX (50 mg/kg).
Levofloxacin was freshly dissolved in isotonic saline and administered via tail vein injection. Thirty minutes before LVFX administration, the intervention drugs of each group were injected intraperitoneally. To reduce the possible effect of solvents on BBB or BCSFB permeability of LVFX, we prioritized water as the solvent. However, Tariquidar and Ko143 are insoluble in water, and a cosolvent must be used to prepare agents that animals can tolerate. According to the different physicochemical properties of these four inhibitors, the preparation of each transporter inhibitor solution in this experiment was as follows. • P‐glycoprotein (P‐gp) inhibitor Tariquidar[22]: Tariquidar was freshly dissolved in DMSO to 8 mg/ml and then diluted to 4 mg/ml with a solution containing 10% Tween‐80, 25% PEG300, and 65% sterile water. • Breast cancer resistance protein (BCRP) inhibitor Ko143[23]: Ko143 was freshly dissolved in DMSO to 15 mg/ml and then diluted to 7.5 mg/ml with a solution containing 10% Tween‐80, 25% PEG300, and 65% sterile water. • Multidrug resistance‐associated proteins (MRPs) inhibitor MK571[24]: MK571 sodium salt hydrate was dissolved in 1.25% (w/v) aq sodium hydrogen carbonate (NaHCO3) solution to obtain a concentration of 10 mg/ml. • Organic anion transporters (OATs) inhibitor probenecid[25]: Probenecid was dissolved in NaOH (pH = 9.0–9.2) alkalized physiological saline to obtain a concentration of 25 mg/ml.
The pipelines where the blood and brain probes were installed were perfused at the speed of 2 μl/min with ACD solution and ACSF, respectively. Two brain probes were inserted into guide cannulas of the target site and allowed to equilibrate for 1 h. Subsequently, the rats were treated according to their corresponding groups in the device where they could move freely. Microdialyses samples were collected every 15 min using a fraction collector (EFC‐96, Eicom Co.) for 3 h and stored at 4°C until analysis. Finally, rats were anesthetized and decapitated, and their brain was harvested.

[1] abbreviates: CSF (lateral ventricle microdialysate, unbound), CSF.
The mark [2] stands for this setting: brain ECF (hippocampal microdialysate, unbound), 30 min before LVFX, brain ECF.

Read-outs that look alike come from different tables or passages of the source.

In the case of `C[C@H]1COc2c(N3CCN(C)CC3)c(F)cc3c(=O)c(C(=O)O)cn1c23` [LVFX, Levofloxacin], the “change in LVFX in the rat brain after Tariquidar” value (Tariquidar 8 mg/kg i.p. + LVFX 50 mg/kg vs control group) is “no significant change”. The MRT – broadly, the average time that molecules of a dose stay in the body – (CSF (lateral ventricle microdialysate, unbound), 30 min before LVFX, CSF) was 80 min. Besides, under setting [1], the Tmax (in general, the time from dosing to the highest level) is 15 min; the AUC(0-inf) (commonly the area under the concentration-time curve extrapolated to infinity) is 4540 ng·h/mL; the Cmax (in general, the peak of the concentration-time curve) was determined as 3590 ± 280 ng/mL; the half-life (usually the time needed for the level to fall by half in the phase considered) came to 50.5 ± 18.6 min. In addition, the AUC(0-t) under setting [1] is 3900 ng·h/mL. The Kp (CSF / blood (unbound, microdialysate), 30 min before LVFX, AUCu,CSF/AUCu,blood, read-out: K p,uu,CSF) was found to be 0.37 ± 0.013. Further, under setting [2], the Tmax was 15 min, the total exposure AUC(0-inf) was 4580 ng·h/mL, the Cmax is 2810 ± 450 ng/mL and the mean residence time MRT was 86.1 min. Under setting [2], the half-life was found to be 52.9 ± 9.83 min and the AUC(0-t) was 4100 ng·h/mL. Also, the Kp (brain ECF / blood, 30 min before LVFX, AUCu,ECF/AUCu,blood, read-out: K p,uu,ECF) was found to be 0.368 ± 0.035. Under “30 min before LVFX, blood”, the Tmax was 15 min, the AUC(0-inf) was 11800 ng·h/mL, the peak concentration (Cmax) is 10400 ± 760 ng/mL and the MRT was 69.2 min. Also, for the setting “30 min before LVFX, blood”, the half-life is 40 ± 6.51 min and the AUC(0-t) was 11100 ng·h/mL.
